Source: the NIST ThermoML archive (doi:10.1021/acs.jced.6b00577)
± gives the expanded uncertainty stated by the source.

Conditions: Liquid, Frequency=8 MHz, Pulse-echo method

## CCCC [butane]
380 K, 6106.7 kPa
  speed of sound: 563.62 ± 0.37 m/s
380 K, 7107.5 kPa
  speed of sound: 584.62 ± 0.38 m/s
380 K, 8108.3 kPa
  speed of sound: 604.2 ± 0.39 m/s
380 K, 9109.1 kPa
  speed of sound: 622.6 ± 0.4 m/s
380 K, 10110 kPa
  speed of sound: 639.98 ± 0.4 m/s
380 K, 12611 kPa
  speed of sound: 679.85 ± 0.42 m/s
380 K, 15113 kPa
  speed of sound: 715.71 ± 0.43 m/s
380 K, 17614 kPa
  speed of sound: 748.49 ± 0.45 m/s
380 K, 20116 kPa
  speed of sound: 778.8 ± 0.46 m/s
380 K, 25120 kPa
  speed of sound: 833.69 ± 0.48 m/s
380 K, 30123 kPa
  speed of sound: 882.73 ± 0.5 m/s
380 K, 35127 kPa
  speed of sound: 927.32 ± 0.51 m/s
380 K, 40132 kPa
  speed of sound: 968.4 ± 0.53 m/s
380 K, 45135 kPa
  speed of sound: 1006.6 ± 0.54 m/s
380 K, 50139 kPa
  speed of sound: 1042.4 ± 0.56 m/s
380 K, 60146 kPa
  speed of sound: 1108.3 ± 0.58 m/s
380 K, 70153 kPa
  speed of sound: 1167.9 ± 0.61 m/s
380 K, 80160 kPa
  speed of sound: 1222.7 ± 0.63 m/s
380 K, 90167 kPa
  speed of sound: 1273.5 ± 0.65 m/s
380 K, 100174 kPa
  speed of sound: 1321.1 ± 0.67 m/s
400 K, 2704.8 kPa
  speed of sound: 329.55 ± 0.28 m/s
400 K, 3105.1 kPa
  speed of sound: 351.68 ± 0.29 m/s
400 K, 4105.8 kPa
  speed of sound: 396.18 ± 0.31 m/s
400 K, 5106.4 kPa
  speed of sound: 431.84 ± 0.32 m/s
400 K, 6107 kPa
  speed of sound: 462.27 ± 0.33 m/s
400 K, 7107.7 kPa
  speed of sound: 489.16 ± 0.34 m/s
400 K, 8108.4 kPa
  speed of sound: 513.44 ± 0.35 m/s
400 K, 9109.4 kPa
  speed of sound: 535.71 ± 0.36 m/s
400 K, 10110 kPa
  speed of sound: 556.36 ± 0.37 m/s
400 K, 12612 kPa
  speed of sound: 602.56 ± 0.39 m/s
400 K, 15114 kPa
  speed of sound: 643.08 ± 0.4 m/s
400 K, 17616 kPa
  speed of sound: 679.47 ± 0.42 m/s
400 K, 20118 kPa
  speed of sound: 712.7 ± 0.43 m/s
400 K, 25121 kPa
  speed of sound: 772.06 ± 0.45 m/s
400 K, 30125 kPa
  speed of sound: 824.41 ± 0.47 m/s
400 K, 35128 kPa
  speed of sound: 871.59 ± 0.49 m/s
400 K, 40132 kPa
  speed of sound: 914.76 ± 0.51 m/s
400 K, 45135 kPa
  speed of sound: 954.73 ± 0.53 m/s
400 K, 50138 kPa
  speed of sound: 992.04 ± 0.54 m/s
400 K, 60145 kPa
  speed of sound: 1060.3 ± 0.57 m/s
400 K, 70152 kPa
  speed of sound: 1121.8 ± 0.59 m/s
400 K, 80159 kPa
  speed of sound: 1178.1 ± 0.61 m/s
400 K, 90166 kPa
  speed of sound: 1230.3 ± 0.63 m/s
400 K, 100173 kPa
  speed of sound: 1278.9 ± 0.65 m/s
420 K, 4104.4 kPa
  speed of sound: 244.51 ± 0.25 m/s
420 K, 4455.2 kPa
  speed of sound: 271.52 ± 0.26 m/s
420 K, 4605 kPa
  speed of sound: 281.85 ± 0.27 m/s
420 K, 4955.6 kPa
  speed of sound: 302.47 ± 0.27 m/s
420 K, 5105.1 kPa
  speed of sound: 310.48 ± 0.28 m/s
420 K, 5456.1 kPa
  speed of sound: 327.76 ± 0.28 m/s
420 K, 5605.7 kPa
  speed of sound: 334.63 ± 0.28 m/s
420 K, 6105.8 kPa
  speed of sound: 355.8 ± 0.29 m/s
420 K, 6606.5 kPa
  speed of sound: 374.83 ± 0.3 m/s
420 K, 7106.5 kPa
  speed of sound: 392.2 ± 0.31 m/s
420 K, 8107.2 kPa
  speed of sound: 423.27 ± 0.32 m/s
420 K, 9108 kPa
  speed of sound: 450.7 ± 0.33 m/s
420 K, 10109 kPa
  speed of sound: 475.45 ± 0.34 m/s
420 K, 12611 kPa
  speed of sound: 529.12 ± 0.36 m/s
420 K, 15112 kPa
  speed of sound: 574.77 ± 0.38 m/s
420 K, 17615 kPa
  speed of sound: 614.98 ± 0.39 m/s
420 K, 20117 kPa
  speed of sound: 651.2 ± 0.41 m/s
420 K, 25120 kPa
  speed of sound: 714.99 ± 0.43 m/s
420 K, 30124 kPa
  speed of sound: 770.53 ± 0.45 m/s
420 K, 35127 kPa
  speed of sound: 820.17 ± 0.47 m/s
420 K, 40131 kPa
  speed of sound: 865.3 ± 0.49 m/s
420 K, 45134 kPa
  speed of sound: 906.89 ± 0.51 m/s
420 K, 50138 kPa
  speed of sound: 945.57 ± 0.52 m/s
420 K, 55142 kPa
  speed of sound: 981.83 ± 0.54 m/s
420 K, 60145 kPa
  speed of sound: 1016 ± 0.55 m/s
420 K, 70152 kPa
  speed of sound: 1079.3 ± 0.57 m/s
420 K, 80159 kPa
  speed of sound: 1137 ± 0.6 m/s
420 K, 90166 kPa
  speed of sound: 1190.3 ± 0.62 m/s
420 K, 100173 kPa
  speed of sound: 1240 ± 0.64 m/s
430 K, 5105.6 kPa
  speed of sound: 236.47 ± 0.25 m/s
430 K, 5355.3 kPa
  speed of sound: 258.17 ± 0.26 m/s
430 K, 5606 kPa
  speed of sound: 273.03 ± 0.26 m/s
430 K, 5855.6 kPa
  speed of sound: 287.25 ± 0.27 m/s
430 K, 6106.3 kPa
  speed of sound: 300.07 ± 0.27 m/s
430 K, 6356.3 kPa
  speed of sound: 311.9 ± 0.28 m/s
430 K, 6606.6 kPa
  speed of sound: 323.01 ± 0.28 m/s
430 K, 7106.8 kPa
  speed of sound: 343.37 ± 0.29 m/s
430 K, 7106.9 kPa
  speed of sound: 343.37 ± 0.29 m/s
430 K, 7607.2 kPa
  speed of sound: 361.85 ± 0.29 m/s
430 K, 8107.5 kPa
  speed of sound: 378.83 ± 0.3 m/s
430 K, 8607.8 kPa
  speed of sound: 394.6 ± 0.31 m/s
430 K, 9108.1 kPa
  speed of sound: 409.36 ± 0.31 m/s
430 K, 9608.5 kPa
  speed of sound: 423.28 ± 0.32 m/s
430 K, 10109 kPa
  speed of sound: 436.47 ± 0.32 m/s
430 K, 11110 kPa
  speed of sound: 461 ± 0.33 m/s
430 K, 12110 kPa
  speed of sound: 483.55 ± 0.34 m/s
430 K, 13111 kPa
  speed of sound: 504.47 ± 0.35 m/s
430 K, 14112 kPa
  speed of sound: 524.06 ± 0.36 m/s
430 K, 15113 kPa
  speed of sound: 542.49 ± 0.36 m/s
430 K, 17614 kPa
  speed of sound: 584.59 ± 0.38 m/s
430 K, 20116 kPa
  speed of sound: 622.27 ± 0.4 m/s
